Where two headings read alike, the source gives them in different places.
Columns and labels:
GmolGOBP1 = GmolGOBP1 (Grapholita molesta, UniProt H9XTU5); assay: Fluorescence competitive binding assay with probe 1-NPN, rGmolGOBP1; conditions: for binding to rGmolGOBP1 (in words): competitive binding with 1-NPN
Experimental: (§1) Fluorescence binding assays were performed on a Hitachi (Tokyo, Japan) F-4500 fluorescence spectrophotometer with a 1 cm light path fluorimeter quartz cuvette. Both of the slit widths for excitation and emission were 10 nm. 1-N-phenyl-naphthylamine (1-NPN) was dissolved in HPLC purity grade methanol to yield a 1 mM stock solution. […] The probes were excited at 337 nm and emission spectra were recorded between 370 and 550 nm. […] Binding data were collected in three independent measurements.
(§2) Dissociation constants of the complex GmolGOBPs/1-NPN (K1-NPN) were calculated by a nonlinear regression binding curve, using Prism 5.0 (GraphPad Software Inc.).

rGmolPBP1 = molecular target: rGmolPBP1; parameters: method as in earlier work; conditions: cited from earlier work
rGmolGOBP1 = molecular target: T1, rGmolGOBP1 (Grapholita molesta, UniProt H9XTU5); assay: 1-NPN fluorescence binding titration of rGmolGOBP1; conditions: 2 μM protein, 20 mM Tris-HCl pH 7.4; read-out: dissociation constant of 1-NPN
T1 sequence (H9XTU5 21-164): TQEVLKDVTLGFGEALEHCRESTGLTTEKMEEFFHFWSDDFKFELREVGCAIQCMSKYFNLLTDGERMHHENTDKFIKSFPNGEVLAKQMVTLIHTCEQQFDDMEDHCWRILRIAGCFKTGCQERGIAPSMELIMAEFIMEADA
Experimental: (§3) Fluorescence binding assays were performed on a Hitachi (Tokyo, Japan) F-4500 fluorescence spectrophotometer with a 1 cm light path fluorimeter quartz cuvette. Both of the slit widths for excitation and emission were 10 nm. 1-N-phenyl-naphthylamine (1-NPN) was dissolved in HPLC purity grade methanol to yield a 1 mM stock solution. A 2 μM solution of the protein in 20 mM Tris-HCl, pH 7.4, was titrated with aliquots of 1 mM 1-NPN to final concentrations of 1, 2, 4, 6, 8, 10, 12, 14, 16, 18, and 22 μM. The probes were excited at 337 nm and emission spectra were recorded between 370 and 550 nm. All ligands (S1 File) used in competitive binding assays were also dissolved in HPLC purity grade methanol. The final concentrations of sex pheromones were between 1 and 22 μM for each rGmolGOBP protein, whereas the concentrations of 30 synthetic plant volatiles to rGmolGOBP1 and 2 were up to 64 and 100 μM, respectively. Binding data were collected in three independent measurements.
(§4) Dissociation constants of the complex GmolGOBPs/1-NPN (K1-NPN) were calculated by a nonlinear regression binding curve, using Prism 5.0 (GraphPad Software Inc.). […]

rGmolGOBP2 = rGmolGOBP2 (Grapholita molesta, UniProt H9XTU6); assay: 1-NPN fluorescence binding titration of rGmolGOBP2; conditions: 2 μM protein, 20 mM Tris-HCl pH 7.4; read-out: dissociation constant of 1-NPN
rGmolGOBP2, sequence (H9XTU6 entry or part of it): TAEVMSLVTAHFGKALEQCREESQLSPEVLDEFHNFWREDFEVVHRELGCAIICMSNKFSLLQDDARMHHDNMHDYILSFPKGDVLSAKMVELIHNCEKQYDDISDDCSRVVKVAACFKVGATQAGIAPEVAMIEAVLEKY
Experimental: as §3, §4

GmolGOBP2 = GmolGOBP2 (Grapholita molesta, UniProt H9XTU6); assay: Fluorescence competitive binding assay with probe 1-NPN, rGmolGOBP2 wild-type; conditions: for IC50: displacing half of initial fluorescence, read-out: GmolGOBP2 IC50
GmolGOBP2, sequence (H9XTU6 entry or part of it): as above
Experimental: as §1, §2

GmolGOBP2 T9A = GmolGOBP2 T9A (Grapholita molesta, UniProt H9XTU6, T29A); assay: Fluorescence competitive binding assay, GmolGOBP2 mutant T9A
GmolGOBP2 T9A, sequence (H9XTU6 entry or part of it T29A): as the sequence (H9XTU6 entry or part of it) above, with T9A counted along it
Experimental: as §3
(§5) Dissociation constants of the complex GmolGOBPs/1-NPN (K1-NPN) were calculated by a nonlinear regression binding curve, using Prism 5.0 (GraphPad Software Inc.). The inhibition constants (Ki) of the competitors were computed from the corresponding IC50 values using the equation: Ki = [IC50]/(1+[1−NPN]/K1−NPN), where [1−NPN] is the free concentration of 1−NPN and K1-NPN is the dissociation constant of the complex protein/1-NPN.
(§6) Gene-specific primers were designed in accordance with the recommended protocols of the TaKaRa MutanBEST Kit (TaKaRa, Shiga, Japan). The GmolGOBP2 coding sequence was mutated to create the three mutants GmolGOBP2 T9A (threonine to alanine at position 9), GmolGOBP2 V111A (valine to alanine at position 111), and GmolGOBP2 V114A (valine to alanine at position 114). Mutations were obtained using the TaKaRa MutanBEST Kit with Pyrobest DNA polymerase with the pMD19-T/GmolGOBP2 plasmid DNA as template. All plasmids containing mutations were verified by DNA sequencing. Mutated protein expression and enrichment were performed as described above for rGmolGOBP1 and 2. After determining concentrations, purified mutants were applied to verify the binding affinities with dodecanol and its analogs in fluorescence ligand-binding assays.

GmolGOBP2 V111A = GmolGOBP2 V111A (Grapholita molesta, UniProt H9XTU6, V131A); assay: Fluorescence competitive binding assay, GmolGOBP2 mutant V111A
GmolGOBP2 V111A, sequence (H9XTU6 entry or part of it V131A): as the sequence (H9XTU6 entry or part of it) above, with V111A counted along it
Experimental: as §3, §5, §6

GmolGOBP2 V114A = GmolGOBP2 V114A (Grapholita molesta, UniProt H9XTU6, V134A); assay: Fluorescence competitive binding assay, GmolGOBP2 mutant V114A
GmolGOBP2 V114A, sequence (H9XTU6 entry or part of it V134A): as the sequence (H9XTU6 entry or part of it) above, with V114A counted along it
Experimental: as §3, §5, §6

rGmolOBP8 = molecular target: rGmolOBP8; parameters: method as in PMID 26609640; conditions: cited from earlier work
rGmolOBP11 = molecular target: rGmolOBP11; parameters: method as in PMID 26609640; conditions: cited from earlier work
[1] = protein and 1-NPN 2 μM, pH 7.4, calculated from IC50, read-out: GmolGOBP1 Ki
[2] = protein and 1-NPN 2 μM, pH 7.4, displacing half of initial fluorescence, read-out: GmolGOBP1 IC50
[3] = protein and 1-NPN 2 μM, pH 7.4, calculated from IC50, read-out: GmolGOBP2 Ki

Structure (SMILES) | Ki (GmolGOBP1; [1]) | IC50 (GmolGOBP1; [2]) | Ki (GmolGOBP2; [3]) | IC50 (GmolGOBP2; protein and 1-NPN 2 μM, pH 7.4) | other results
CCCCCCCCCCCCCCCC [Hexadecane] |  |  |  |  | binding to rGmolGOBP1 (in words) (GmolGOBP1): very weak binding affinities
CCCCCCO [1-Hexanol] | 19.7 µM | 21.4 ± 1.8 µM |  |  | 
CC/C=C\CCOC(C)=O [Cis-3-Hexenyl acetate] | 22.4 µM | 24.3 ± 1.71 µM |  |  | 
CCC/C=C/CCCCCCCOC(C)=O [E8-12:AC, (E)-8-dodecenyl acetate] | 8.85 µM | 10.5 ± 0.87 µM |  |  | Ki (rGmolPBP1): 1.09 µM
c1ccc(Nc2cccc3ccccc23)cc1 [1-NPN, 1-N-phenyl-naphthylamine] |  |  |  |  | Kd (rGmolGOBP1): 11.4 µM; Kd (rGmolGOBP2): 4.73 µM
CCCCOC(C)=O [Butyl acetate] |  |  |  |  | IC50 (GmolGOBP1): 39.9 ± 2.66 µM; Ki (GmolGOBP1): 36.7 µM
CCCCCCCCCC [Decane] | 5.19 µM | 5.64 ± 0.69 µM |  |  | 
CCCCCCCCCCCCCCO [tetradecanol] |  |  |  |  | Ki (GmolGOBP2): 0.36 ± 0.05 µM; affinity of T9A mutant versus wild-type (in words) (GmolGOBP2 T9A; T9A versus wild-type rGmolGOBP2): drastical decline in affinity; Ki (GmolGOBP2 T9A; mutant T9A, protein and 1-NPN 2 μM, ligand 0 to 14 μM, read-out: Ki T9A): 5.75 ± 0.86 µM; affinity of V111A mutant versus wild-type (in words) (GmolGOBP2 V111A; V111A versus wild-type rGmolGOBP2): no differences; Ki (GmolGOBP2 V111A; mutant V111A, protein and 1-NPN 2 μM, ligand 0 to 14 μM, read-out: Ki V111A): 0.3 ± 0.16 µM; affinity of V114A mutant versus wild-type (in words) (GmolGOBP2 V114A; V114A versus wild-type rGmolGOBP2): no differences; Ki (GmolGOBP2 V114A; mutant V114A, protein and 1-NPN 2 μM, ligand 0 to 14 μM, read-out: Ki V114A): 0.37 ± 0.14 µM
CCC/C=C\CCCCCCCO [Z8-12:OH, (Z)-8-dodecenyl alcohol] | 3.14 µM | 3.85 ± 0.41 µM | 12.8 µM | 15.5 ± 0.52 µM | Ki (rGmolOBP8): 5.59 µM; Ki (rGmolOBP11): 3.05 µM
N#Cc1ccccc1 [Benzonitrile] |  |  |  |  | IC50 (GmolGOBP1): 40.4 ± 1.95 µM; Ki (GmolGOBP1): 37.1 µM
CC/C=C\CCO [Cis-3-Hexen-1-ol] |  |  |  |  | IC50 (GmolGOBP1): 18.3 ± 1.55 µM; Ki (GmolGOBP1): 16.8 µM
CCC/C=C/C=O [(E)-2-Hexenal] |  |  |  |  | IC50 (GmolGOBP1): 23 ± 1.85 µM; Ki (GmolGOBP1): 21.2 µM
CCCCCCC(=O)OCC [Ethyl heptanoate] | 34.4 µM | 37.4 ± 2.35 µM | 73.2 µM | 88.7 ± 3.01 µM | 
CCCCCCOC(C)=O [Hexyl acetate] | 27.5 µM | 29.9 ± 4.11 µM | 81.6 µM | 98.8 ± 3.63 µM | 
CCCCOC(=O)CCC [Butyl butyrate] | 33.1 µM | 36 ± 2.5 µM |  |  | 
CCCCCCCCCCCCCCCCCC [Octadecane] |  |  |  |  | binding to rGmolGOBP1 (in words) (GmolGOBP1): very weak binding affinities
CCCCCC(=O)OCCCC [Butyl hexanoate] | 17.7 µM | 19.2 ± 1.27 µM | 43.1 µM | 52.2 ± 2.49 µM | 
CCCCCCCCC=O [Nonanal] | 54.4 µM | 59.2 ± 8.7 µM | 75.3 µM | 91.2 ± 5.49 µM | 
C=C/C(C)=C/CCC(=C)C [α-Ocimene] | 12.4 µM | 13.5 ± 0.79 µM | 44.1 µM | 53.4 ± 4.91 µM | 

— publication PMC4859520, “Binding Properties of General Odorant Binding Proteins from the Oriental Fruit Moth, Grapholita molesta (Busck) (Lepidoptera: Tortricidae)” (PLoS ONE, 2016)
